This test deals with P. falciparum 3D7 growth, pLDH absorbance. Nature of the test: P. falciparum 3D7 growth inhibition, dose response, strain 3D7 (AID 2305).

Several values for one entry are separate records, joined by “and”; a condition that tells them apart may be missing. Equal entries are not always repeated.

As usually defined, the IC50 is the concentration that gives 50% inhibition. `COc1ccccc1N1CCN(CCCCN(C(=O)Nc2cccc(Cl)c2)C(=O)Nc2cccc(Cl)c2)CC1` returned an IC50 of 710 nM.

`COc1cc(NC(=O)c2ccc(-c3ccc(C(C)=O)cc3)s2)ccc1OCCN1CCCC1` registered an IC50 of 150 nM. `CC(C)(C)c1ccc(CNC(=O)c2ccc(-c3nc4ccc(C(C)(C)C)cc4[nH]3)cc2)cc1` registered an IC50 of 840 nM. Turning to `Oc1ccc2c(c1CNC1CCCCC1)CCCC2`, the IC50 is 940 nM. The figure for `CN(C)CCOc1cc(NC(=O)Nc2ccc(-c3ccncc3)c(C(F)(F)F)c2)ccc1Cl` is 990 nM. In the case of `N/C(=N\c1cccc(Cc2ccc([N+](=O)[O-])cc2)n1)Nc1ccccc1`, the IC50 came to 950 nM. The figure for `COc1cccc(Nc2nc(Nc3cccc(C#N)c3)cc(C(F)(F)F)n2)c1` is 830 nM; for `Brc1cc(Br)c2c(c1)C(NCCCNc1nc3ncccc3[nH]1)CCN2` (stereo unspecified) it is 590 nM; for `CCOc1cc(C(=O)NC2CCN(Cc3ccccc3)C2)ccc1-c1nc2ccc(Cl)cc2[nH]1` (stereo unspecified) it is 1010 nM. The figure for `Cc1ccc(C)c2c1[nH]c1ccc(C3=NCCN3)cc12` is 500 nM. The figure for `Cc1cc(C)c(C(=O)Nc2ccc3nc(C)cc(N)c3c2)c(C)c1` is 1090 nM; for `c1cc(Nc2nccc(-c3cnn4ncccc34)n2)cc(-c2cnco2)c1` it is 690 nM; for `Cc1cccc(-c2cc3cc(Nc4ccnc5cc(-c6nccs6)ccc45)ccc3[nH]2)c1` it is 170 nM. Consider `CC(C)(C)c1cc([N+](=O)[O-])cc(C(=O)Nc2ccccc2C(F)(F)F)c1O`, for which the 50% inhibitory concentration (IC50) worked out at 650 nM. Take `Cc1[nH]c2ccc(O)cc2c1C1CCN(CCCCCNC(=O)/C=C/c2ccc(Cl)c(Cl)c2)CC1`: the half-inhibitory concentration (IC50) came to 770 nM. The figure for `CC(C)CN(Cc1c(O)ccc2[nH]c(-c3ccc(F)cc3F)nc12)CC(C)C` is 800 nM.

`COc1ccc(CNCc2cccc(-c3cccc(-c4nc5ccccc5[nH]4)c3)c2)cc1` registered a half-maximal inhibitory concentration (IC50) of 370 nM. The figure for `c1ccc2cc3c(Nc4ccc(N5CCCCC5)cc4)ccnc3cc2c1` is 740 nM; for `CCc1sc(-c2cc(Cl)ccc2OC)nc1C(=O)NCCN1CCCCC1` it is 940 nM; for `O=C(C=Cc1ccccc1Br)NC1CCC(CN2CCC(c3c[nH]c4ccccc34)CC2)CC1` (stereo unspecified) it is 740 nM and 690 nM. The compound `CN1CCN(c2nsc3ccc(-c4ccc(NC(=O)Nc5ccccc5)cc4)cc23)CC1` displayed an IC50 of 180 nM. The compound `O=C(NCc1cccs1)[C@H](Cc1ccccc1)Nc1ccnc(NCCc2ccc(F)cc2)n1` returned an IC50 of 1450 nM. `O=C(Nc1cccc(C(F)(F)F)c1)Nc1ccc(Cl)c(C(F)(F)F)c1` registered an IC50 of 890 nM. The figure for `O=[N+]([O-])c1ccc(-n2nc(Cc3ccccc3)n(Cc3cccc(F)c3)c2=S)c(C(F)(F)F)c1` is 770 nM; for `O=C(Nc1ccc(C(F)(F)F)cc1)NC1CCN(c2ccnc3ccccc23)CC1` it is 180 nM. Compound `CCCN1CCCN(Cc2cccc(NC(=O)c3ccc(-c4ccccc4)cc3)c2)CC1` registered an IC50 of 1110 nM. The figure for `O=C(Nc1ccc(C(=O)Nc2cccc(C3=NCCN3)c2)cc1)Nc1ccc(C2=NCCN2)cc1` is 100 nM; for `O=C(Nc1ccc(OC2CCN(Cc3ccc(F)cc3)CC2)c(Cl)c1)c1ccsc1` it is 720 nM. As to `COc1ccc2ccc(F)c(CC(=O)N3CCOC(CNCc4cccc(-c5ccc(F)cc5)n4)C3)c2n1` (stereo unspecified), the IC50 was 1010 nM.

Turning to `CC(C)NCc1ccc(-c2ccc(NC(=O)c3ccc(Cl)cc3)cc2)cc1`, the IC50 was determined as 910 nM.

On to `COc1ccc2nccc([C@@H](O)CN3CCC(NC(=O)c4[nH]c5ccccc5c4-c4ccccc4)CC3)c2c1`, for which the IC50 came out at 900 nM. The figure for `COc1cc(Nc2nccc(N3CCC(NS(=O)(=O)c4ccc(NC(C)=O)cc4)CC3)n2)cc(OC)c1OC` is 970 nM; for `CN1CC[C@@H](Oc2cc(CNC(=O)c3ccc(-c4ccc(Cl)cc4)s3)ccc2C(F)(F)F)C1` it is 1030 nM.

In the case of `CCNc1cc(C(=O)N[C@@H](Cc2ccccc2)[C@H](O)CNC(C)(C)CCCC(C)C)cc(N2CCCCS2(=O)=O)c1`, the IC50 was 450 nM. The figure for `Brc1ccc(C=NNc2nc3ccccc3[nH]2)cc1` is 700 nM; for `Cc1c(CN2CCCCC2)cccc1OCCCNc1nc(NCCc2ccc(O)cc2)nc(N2CCNCC2)n1` it is 220 nM. Consider `O=C(NC1CCC(CN2CCC(c3c[nH]c4ccccc34)CC2)CC1)c1cc(-c2ccccc2)c(C(F)(F)F)s1` (stereo unspecified), for which the half-inhibitory concentration (IC50) came out at 170 nM. `CN1CCN(c2nc(NCCNc3ccc([N+](=O)[O-])cc3)c3ccccc3n2)CC1` registered an IC50 of 1320 nM. The figure for `CCn1c(-c2nc(-c3ccc4c(c3)OCO4)cnc2N)nc2cnccc21` is 430 nM. Consider `CS(=O)(=O)c1ccccc1CNC(=O)c1ccc(-c2cccc(-c3nc4ccc(C(F)(F)F)cc4[nH]3)c2)cc1`, for which the IC50 turned out to be 870 nM. The figure for `COc1ccc(C=CC(=O)NC2CCC(CN3CCC(c4c[nH]c5ccccc45)CC3)CC2)cc1OC` (stereo unspecified) is 840 nM and 800 nM. `Cc1ccc(NC(=O)c2ccc(C(=O)NC3CCN(CC4CCCCC4)CC3)cc2)cc1` had a 50% inhibitory concentration (IC50) of 900 nM.

For the compound `Cn1cnc(CCNC(=O)c2ccc(-c3ccc(-c4nc5ccc(F)cc5[nH]4)cc3)cc2)c1`, the IC50 amounted to 870 nM. Take `Cc1ccc(O)cc1Nc1ccnc2cc(-c3cccc(CNCCS(C)(=O)=O)c3)ccc12`: the concentration for half-maximal inhibition (IC50) stood at 840 nM.

Turning to `O=C(N[C@H]1CCN(Cc2ccc(OCCN3CCCC3)c3ccccc23)C1)c1ccc(Cl)c(Cl)c1`, the IC50 is 750 nM. The figure for `CN1CCc2ccc(NC(=O)Nc3cccc(C(=O)c4ccccc4)c3)cc2C1` is 920 nM; for `O=C(Nc1cccc(CN2CCCN(Cc3ncc[nH]3)CC2)c1)c1ccc(-c2ccccc2)cc1` it is 650 nM.

In turn, `Clc1ccccc1OCc1ccccn1` showed an IC50 of 990 nM. The figure for `CC(=O)Nc1ccc(OCCCCCOc2ccc(NC(C)=O)cc2Cl)c(Cl)c1` is 830 nM.

`O=C(/C=C/c1ccc(Cl)c(Cl)c1)NCCCCCN1CCC(C(=O)Nc2ccc(F)c(Cl)c2)CC1` had an IC50 of 650 nM. Regarding `CNCCNCc1cccc(-c2ccc(-c3nc4ccc(C(F)(F)F)cc4[nH]3)s2)c1`, the half-maximal inhibitory concentration (IC50) came out at 820 nM. Consider `COc1ccc(NC(=O)c2c(NC(=O)c3cccs3)sc3c2CCCC3)cc1`, for which the IC50 was 450 nM. As to `CN1CCC(NCc2ccc(S(=O)(=O)Nc3ccc(Oc4cccc(Cl)c4)cc3)cc2)CC1`, the concentration for half-maximal inhibition (IC50) came out at 740 nM. The figure for `CCc1cn2c3c(cc(C(=O)N[C@@H](Cc4ccccc4)[C@H](O)CNC4CCCC4)cc13)N(C)S(=O)(=O)CC2` is 50 nM. The figure for `CCOC(=O)c1ccc(NC(=O)Nc2ccc(-c3cccc(-c4nc5ccc(F)cc5[nH]4)c3)cc2)cc1` is 120 nM. Compound `CCCC1N=C(N)N=C(N)N1c1cccc([N+](=O)[O-])c1` (stereo unspecified) gave an IC50 of 760 nM. With `CCN(CC)CCN1C(=O)C(O)(c2ccccc2Cl)c2c1cc(C(N)=O)cc2C(F)(F)F` (stereo unspecified), the IC50 was 700 nM.

Regarding `O=S(=O)(c1c(Cl)cc(Cl)cc1Cl)N1CCCCC(c2ccc(C(F)(F)F)cc2)=N1`, the half-inhibitory concentration (IC50) stood at 100 nM. The figure for `C[C@@H]1CN(c2cccc3c2nc(-c2cncc(C#N)c2)n3CCNCc2ccccc2)C[C@H](C)O1` is 1220 nM; for `Cc1ccccc1C1CCN(C2CCC(NC(=O)/C=C/c3cccc(Cl)c3)CC2)CC1` (stereo unspecified) it is 890 nM; for `CCN(CC)CCN(Cc1ccc(-c2ccc(Br)cc2)cc1)C(=O)Cn1c(CCc2cccc(F)c2F)nc(=O)c2ccccc21` it is 790 nM. The figure for `CCCCCN1CCCC1CNS(=O)(=O)c1cccc(C(=O)Nc2cccc(C(F)(F)F)c2)c1` (stereo unspecified) is 770 nM; for `CN(C)CCCn1cncc1-c1ccc2ncnc(Nc3ccc4c(cnn4Cc4ccccc4)c3)c2c1` it is 730 nM. The figure for `CC[C@]1(C)C[C@@H](NC(=O)NC(=O)c2ccc(OC)cc2)[C@]2(C)[C@H](C)CC[C@]3(CCC(=O)[C@H]32)[C@@H](C)[C@@H]1OC(=O)NC(=O)c1ccc(OC)cc1` is 990 nM.

As to `c1ccc(-c2nc3ccccc3[nH]2)c(Nc2ccnc3cc(-c4nccs4)ccc23)c1`, the 50% inhibitory concentration (IC50) was found to be 740 nM.

`Fc1ccc2nc(-c3cccc(-c4ccc(CNCc5cnn(-c6ccccc6)n5)cc4)c3)[nH]c2c1` had an IC50 of 920 nM. The figure for `CCOC(=O)c1cc(C(=O)OC)c2ccccn12` is 220 nM; for `O=C(/C=C/c1ccc(Cl)c(Cl)c1)NCCCCCN1CCC(c2c[nH]c3cc(O)ccc23)CC1` it is 750 nM. Compound `O=C(NC1CCN(CC2(c3ccc(Cl)cc3)CCCCC2)CC1)c1ccn[nH]1` registered a concentration for half-maximal inhibition (IC50) of 80 nM. On to `Cc1cc(NC(=O)Nc2ccc(N(C)C)cc2)c2cc(Cl)ccc2n1`, for which the 50% inhibitory concentration (IC50) was 860 nM.

`Fc1cccc(COc2ccc(Nc3ncnc4cc(/C=C/[C@@H]5CCCN5)sc34)cc2Cl)c1` returned an IC50 of 590 nM.

The compound `CCNc1cc(C(=O)N[C@@H](Cc2ccccc2)[C@H](O)CNCC(C)C)cc(N2CCCC2=O)c1` came in with an IC50 of 490 nM. The figure for `Cc1c[nH]c2ccc(/C=C/C(=O)NC3CCC(CCN4CCc5ccc(C#N)cc5CC4)CC3)cc12` (stereo unspecified) is 830 nM; for `Cc1cccc2[nH]c(-c3cccc(-c4cccc(CN5CCC(CO)CC5)c4)c3)nc12` it is 720 nM. The figure for `O=C(Nc1ccc(OC2CCN(Cc3ccsc3)C2)c(Cl)c1)c1cccs1` (stereo unspecified) is 960 nM. The figure for `CCN(CCO)Cc1ccc(-c2ccc(NS(=O)(=O)c3cccc4cccnc34)cc2)cc1` is 990 nM. On to `COc1ccc2nc(Nc3nc4ccncc4[nH]3)sc2c1`, for which the IC50 was found to be 1130 nM.

The compound `COc1ccc2c(NN=Cc3cccc(F)c3)ccnc2c1` returned an IC50 of 210 nM. The figure for `N#Cc1ccc2c(c1)CCN(CCC1CCC(NC(=O)c3cc4ccc(Br)cc4[nH]3)CC1)C2` (stereo unspecified) is 760 nM. The figure for `Cc1cc(N[C@@H](Cc2ccccc2)C(=O)Nc2ccccc2)nc(NCCc2ccccn2)n1` is 870 nM; for `CCCC(=O)c1cnc2c(Oc3cc(Cl)ncn3)cccc2c1Nc1ccccc1C` it is 340 nM; for `COc1ccc2c(NCCc3ccccc3)cc(-c3ccccc3)nc2c1` it is 990 nM.

`Cc1cc(N(C)CCCN2CCCCC2)nc(Nc2ccc(Cl)cc2)n1`: the IC50 came out at 190 nM.

The compound `COc1cccc(C(=O)Nc2ccc(Nc3nc(C)cc(N4CCCCC4)n3)cc2)c1OC` yielded an IC50 of 1020 nM. On to `O=C(Nc1ccc(Cl)cc1)c1cc(Cl)ccc1NC(=O)C1CCc2ccccc2O1` (stereo unspecified), for which the IC50 was 1790 nM. `CCCNS(=O)(=O)c1ccc(NC(=O)C(C)Oc2ccc([N+](=O)[O-])cc2)cc1` (stereo unspecified) came in with an IC50 of 720 nM.

For the origin of these results see PubChem BioAssay AID2305 (GlaxoSmithKline (GSK), 2010).
